In patent publication US20240285540A1, “FUNCTIONAL THERAPEUTIC INDEX IN THE TREATMENT OF PERIPHERAL IMMUNE DYSFUNCTION” (priority 2023, published 2024):
Marks after values point to notes of the source that are not given here. Primed or numbered codes have the meaning given here. Ends that are not written are not given here. bexarotene = RXR ligand attached at the C-terminus; adapalene = RARβ/γ ligand, attached at C-terminus; GW7647″ = PPARα ligand, attached at C-terminus; GW4064 = FXR ligand, attached at C-terminus

Tested on: C2C12 myoblast cell line
Assay: C2C12 myoblast differentiation assay (creatine kinase)
Assay type: cell-based
Conditions: 96 hours, relative to imm3SVD peptide (=100)
Procedure: C2C12 myoblast cell line (ATCC, Manassas, VA) was cultured in DMEM medium supplemented with 10% FBS and 1% penicillin/streptomycin. For differentiation, cells were cultured in the same medium, except that 10% FBS was replaced by 2% horse serum. Peptides and NR ligands were added at the indicated concentrations and cells were harvested 96 hours later for assay. Cell extracts were assayed for creatine kinase (CK) per mg protein. CK was measured using the ECPK-100 kit from BioAssay Systems (Hayward, CA). Protein was assayed using the BCA protein assay kit from Thermofisher Scientific (Waltham, MA). CK activities and p values were expressed relative to imm3SVD peptide (=100). **p<0.01; *p<00.05.

[1] = Peptide 0.66 uM, no added free ligand

Row | Compound | CK (units/mg) (Added ligand 2 uM together with imm3SVD peptide 0.66 uM) | CK (units/mg) [1]
1 | CN1c2ccccc2N=C(c2ccc(C(=O)O)cc2)c2cc3c(cc21)C(C)(C)CCC3(C)C [HX600] | 30.3 ± 16.0* % of imm3SVD peptide | 
2 | imm3adp: KKGFYKKKQCRPSKGRKRGFCWSVDK C-terminally liganded with adapalene (RARß/γ ligand) (KKGFYKKKQCRPSKGRKRGFCWSVDK-adapalene; cysteine pairing not given here) |  | 185.8 ± 23.5** % of imm3SVD peptide
3 | imm3bex: SDKKGFYKKKQCRPSKGRKRGFCWSVDK C-terminally liganded with bexarotene (RXR ligand) (SDKKGFYKKKQCRPSKGRKRGFCWSVDK-bexarotene; cysteine pairing not given here) |  | 121.0 ± 6.6* % of imm3SVD peptide
4 | imm3fxr: SDKKGFYKKKQCRPSKGRKRGFCWSVDK C-terminally liganded with GW4064 (FXR ligand) (SDKKGFYKKKQCRPSKGRKRGFCWSVDK-GW4064; cysteine pairing not given here) |  | 136.8 ± 19.6* % of imm3SVD peptide
5 | imm3ppa: SDKKGFYKKKQCRPSKGRKRGFCWSVDK C-terminally liganded with GW7647 (PPARα ligand) (SDKKGFYKKKQCRPSKGRKRGFCWSVDK-{GW7647″}; cysteine pairing not given here) |  | 155.9 ± 18.8** % of imm3SVD peptide
